# Laboratory results published in patent US20250255304A1, “HIGHLY TRA[…] CONTROLLING COMPOSITION” (ZM Crop Protection Corporation, priority 2022, published 2025).
# Legend:
# Format in all cases: in vivo
# [1] = test system: Coptotermes formosanus Shiraki; experiment: Test Example 2: primary transmission treatment effect
# Protocol: (§1) A test agent solution containing 0.023 parts of dicloromezotiaz was prepared by adding 99.875 parts of water to 0.125 parts of the aqueous suspension composition shown in Formulation Example 1. As comparative examples, four types of commercially available neonicotinoid termite controlling agents and four types of slow-acting termite controlling agents shown in Table 2 were diluted with water at practical concentrations to prepare test agent solutions. The “agent concentration (%)” indicates the concentration of the active ingredient contained in each of the composition of the present invention and the termite controlling agents and the “test agent solution concentration (%)” indicates the concentration of the active ingredient in each of the prepared test agent solutions.
# (§2) After 1.2 g of each of the test agent solutions of the example and the comparative examples diluted to a predetermined concentration and prepared was added to 4.8 g of soil, 6 g of the mixed soil was spread in a glass petri dish having a diameter of 50 mm and ten workers of Coptotermes formosanus Shiraki were released into the petri dish and exposed to the agent solution for 4 hours.
# [2] = test system: Coptotermes formosanus Shiraki; experiment: Test Example 2: secondary transmission treatment effect
# Protocol: as §1, §2
# [3] = test system: Coptotermes formosanus Shiraki; experiment: Test Example 3: extirpation test with dust formulation using simulated termite trails; settings: active ingredient concentration 50%
# [4] = test system: Coptotermes formosanus Shiraki; experiment: Test Example 1: effect of agent on gypsum treated with test agent solution; settings: dicloromezotiaz 0.023%, imidacloprid 0.1%, fipronil 0.03% test agent solution on gypsum
# Protocol: A test agent solution containing 0.023 parts of dicloromezotiaz was prepared by adding 99.875 parts of water to 0.125 parts of the aqueous suspension composition shown in Formulation Example 1.
# In a comparative example, an aqueous suspension composition prepared by adding an agent solution, wherein 99 parts of water was added to 1 part of a flowable containing 10.0 parts of imidacloprid and which contained 0.1 parts of imidacloprid and a drug solution, wherein 299 parts of water was added to 1 part of a flowable containing 9.1 parts of fipronil and which contained 0.03 parts of fipronil, uniformly mixing same was used as a test agent solution of a comparative example.
# As the imidacloprid formulation and the fipronil formulation, commercially available termite controlling agents were used and diluted solutions at practical agent concentrations thereof were used as test agent solutions.
# Gypsum was cured and spread in a glass petri dish having a diameter of 90 mm, 15 ml of each of the test agent solution of the example and the test agent solution of the comparative example was uniformly dropped on the entire surface of the gypsum. Thereafter, ten workers of Coptotermes formosanus Shiraki were released into the petri dish and the petri dish was covered and left to stand in a thermostatic chamber (25° C./relative humidity 60%).
# The number of abnormal termites and the number of dead termites among the released termites (Coptotermes formosanus Shiraki) were observed every one hour from immediately after the release of the termites (Coptotermes formosanus Shiraki) until ten hours passed and the total number of the abnormal termite rate and the dead termite rate was calculated as the abnormal or dead termite rate (%) according to [Expression 1] below and the rates of expression of the effects of the respective agents were compared. Each test agent was prepared in one petri dish as one plot and the test was carried out in two replicates.
# [5] = after 1 day, Table 4, dicloromezotiaz 0.023%, chlorfenapyr 0.11%, clothianidin 0.05%, dinotefuran 0.20%, thiamethoxam 0.10%, broflanilide 0.03% solution in soil
# [6] = after 3 days, Table 4, dicloromezotiaz 0.023%, chlorfenapyr 0.11%, clothianidin 0.05%, dinotefuran 0.20%, thiamethoxam 0.10%, broflanilide 0.03% solution in soil
# [7] = after 7 days, Table 4, dicloromezotiaz 0.023%, chlorfenapyr 0.11%, clothianidin 0.05%, dinotefuran 0.20%, thiamethoxam 0.10%, broflanilide 0.03% solution in soil
# [8] = after 14 days, Table 4, dicloromezotiaz 0.023%, chlorfenapyr 0.11%, clothianidin 0.05%, dinotefuran 0.20%, thiamethoxam 0.10%, broflanilide 0.03% solution in soil
# [9] = after 21 days, Table 4, dicloromezotiaz 0.023%, chlorfenapyr 0.11%, clothianidin 0.05%, dinotefuran 0.20%, thiamethoxam 0.10%, broflanilide 0.03% solution in soil
# [10] = after 1 day, Table 6, dicloromezotiaz 0.023%, chlorfenapyr 0.11%, clothianidin 0.05%, dinotefuran 0.20%, thiamethoxam 0.10%, broflanilide 0.03% solution in soil
# [11] = after 3 days, Table 6, dicloromezotiaz 0.023%, chlorfenapyr 0.11%, clothianidin 0.05%, dinotefuran 0.20%, thiamethoxam 0.10%, broflanilide 0.03% solution in soil
# [12] = after 7 days, Table 6, dicloromezotiaz 0.023%, chlorfenapyr 0.11%, clothianidin 0.05%, dinotefuran 0.20%, thiamethoxam 0.10%, broflanilide 0.03% solution in soil
# [13] = after 14 days, Table 6, dicloromezotiaz 0.023%, chlorfenapyr 0.11%, clothianidin 0.05%, dinotefuran 0.20%, thiamethoxam 0.10%, broflanilide 0.03% solution in soil
# [14] = after 21 days, Table 6, dicloromezotiaz 0.023%, chlorfenapyr 0.11%, clothianidin 0.05%, dinotefuran 0.20%, thiamethoxam 0.10%, broflanilide 0.03% solution in soil
# [15] = after 1 day, Table 3, dicloromezotiaz 0.023%, fipronil 0.03%, imidacloprid 0.10%, chlorantraniliprole 0.05% solution in soil
# [16] = after 3 days, Table 3, dicloromezotiaz 0.023%, fipronil 0.03%, imidacloprid 0.10%, chlorantraniliprole 0.05% solution in soil
# [17] = after 7 days, Table 3, dicloromezotiaz 0.023%, fipronil 0.03%, imidacloprid 0.10%, chlorantraniliprole 0.05% solution in soil
# [18] = after 14 days, Table 3, dicloromezotiaz 0.023%, fipronil 0.03%, imidacloprid 0.10%, chlorantraniliprole 0.05% solution in soil
# [19] = after 21 days, Table 3, dicloromezotiaz 0.023%, fipronil 0.03%, imidacloprid 0.10%, chlorantraniliprole 0.05% solution in soil
# [20] = after 1 day, Table 5, dicloromezotiaz 0.023%, fipronil 0.03%, imidacloprid 0.10%, chlorantraniliprole 0.05% solution in soil
# [21] = after 3 days, Table 5, dicloromezotiaz 0.023%, fipronil 0.03%, imidacloprid 0.10%, chlorantraniliprole 0.05% solution in soil
# [22] = after 7 days, Table 5, dicloromezotiaz 0.023%, fipronil 0.03%, imidacloprid 0.10%, chlorantraniliprole 0.05% solution in soil
# [23] = after 14 days, Table 5, dicloromezotiaz 0.023%, fipronil 0.03%, imidacloprid 0.10%, chlorantraniliprole 0.05% solution in soil
# [24] = after 21 days, Table 5, dicloromezotiaz 0.023%, fipronil 0.03%, imidacloprid 0.10%, chlorantraniliprole 0.05% solution in soil
structure (smiles),measurement,setting,value
CCOCn1c(-c2ccc(Cl)cc2)c(C#N)c(Br)c1C(F)(F)F [Chlorfenapyr],Abnormal or dead termite rate (%),[1]; [5],89%
same,Abnormal or dead termite rate (%),[1]; [6],80%
same,Abnormal or dead termite rate (%),[1]; [7],89%
same,Abnormal or dead termite rate (%),[1]; [8],100%
same,Abnormal or dead termite rate (%),[1]; [9],100%
same,Abnormal or dead termite rate (%),[2]; [10],0%
same,Abnormal or dead termite rate (%),[2]; [11],0%
same,Abnormal or dead termite rate (%),[2]; [12],3.3%
same,Abnormal or dead termite rate (%),[2]; [13],7.8%
same,Abnormal or dead termite rate (%),[2]; [14],31%
"N#Cc1ccc(CC(=NNC(=O)Nc2ccc(OC(F)(F)F)cc2)c2cccc(C(F)(F)F)c2)cc1 (mixture of isomers) [Metaflumizone, metaflumizone]",Abnormal or dead termite rate (%),[3]; 1 h,0%
same,Abnormal or dead termite rate (%),[3]; 2 h,0%
same,Abnormal or dead termite rate (%),[3]; 3 h,0%
same,Abnormal or dead termite rate (%),[3]; 4 h,0%
same,Abnormal or dead termite rate (%),[3]; 5 h,0%
same,Abnormal or dead termite rate (%),[3]; 6 h,0%
same,Abnormal or dead termite rate (%),[3]; 7 h,0%
same,Abnormal or dead termite rate (%),[3]; 1 day,100%
same,Abnormal or dead termite rate (%),[3]; 2 days,100%
same,Abnormal or dead termite rate (%),[3]; 3 days,100%
same,Abnormal or dead termite rate (%),[3]; 7 days,100%
O=[N+]([O-])NC1=NCCN1Cc1ccc(Cl)nc1 [Imidacloprid],Abnormal or dead termite rate (%),[4]; time elapsed 1 h,100%
same,Abnormal or dead termite rate (%),[4]; time elapsed 2 h,100%
same,Abnormal or dead termite rate (%),[4]; time elapsed 3 h,100%
same,Abnormal or dead termite rate (%),[4]; time elapsed 4 h,100%
same,Abnormal or dead termite rate (%),[4]; time elapsed 5 h,100%
same,Abnormal or dead termite rate (%),[4]; time elapsed 6 h,100%
same,Abnormal or dead termite rate (%),[4]; time elapsed 7 h,100%
same,Abnormal or dead termite rate (%),[4]; time elapsed 8 h,100%
same,Abnormal or dead termite rate (%),[4]; time elapsed 9 h,100%
same,Abnormal or dead termite rate (%),[4]; time elapsed 10 h,100%
same,Abnormal or dead termite rate (%),[1]; [15],92%
same,Abnormal or dead termite rate (%),[1]; [16],22%
same,Abnormal or dead termite rate (%),[1]; [17],11%
same,Abnormal or dead termite rate (%),[1]; [18],14%
same,Abnormal or dead termite rate (%),[1]; [19],15%
same,Abnormal or dead termite rate (%),[2]; [20],0%
same,Abnormal or dead termite rate (%),[2]; [21],1.1%
same,Abnormal or dead termite rate (%),[2]; [22],1.1%
same,Abnormal or dead termite rate (%),[2]; [23],1.1%
same,Abnormal or dead termite rate (%),[2]; [24],1.2%
CN/C(=N\[N+](=O)[O-])NCc1cnc(Cl)s1 [Clothianidin],Abnormal or dead termite rate (%),[1]; [5],94%
same,Abnormal or dead termite rate (%),[1]; [6],89%
same,Abnormal or dead termite rate (%),[1]; [7],75%
same,Abnormal or dead termite rate (%),[1]; [8],91%
same,Abnormal or dead termite rate (%),[1]; [9],94%
same,Abnormal or dead termite rate (%),[2]; [10],0%
same,Abnormal or dead termite rate (%),[2]; [11],0%
same,Abnormal or dead termite rate (%),[2]; [12],3.3%
same,Abnormal or dead termite rate (%),[2]; [13],3.3%
same,Abnormal or dead termite rate (%),[2]; [14],4.4%
CNC(=O)c1cc(Cl)cc(C)c1NC(=O)c1cc(Br)nn1-c1ncccc1Cl [Chlorantraniliprole],Abnormal or dead termite rate (%),[1]; [15],98%
same,Abnormal or dead termite rate (%),[1]; [16],100%
same,Abnormal or dead termite rate (%),[1]; [17],85%
same,Abnormal or dead termite rate (%),[1]; [18],80%
same,Abnormal or dead termite rate (%),[1]; [19],85%
same,Abnormal or dead termite rate (%),[2]; [20],10%
same,Abnormal or dead termite rate (%),[2]; [21],2.2%
same,Abnormal or dead termite rate (%),[2]; [22],1.1%
same,Abnormal or dead termite rate (%),[2]; [23],2.2%
same,Abnormal or dead termite rate (%),[2]; [24],7.8%
CN1COCN(Cc2cnc(Cl)s2)/C1=N\[N+](=O)[O-] [Thiamethoxam],Abnormal or dead termite rate (%),[1]; [5],98%
same,Abnormal or dead termite rate (%),[1]; [6],91%
same,Abnormal or dead termite rate (%),[1]; [7],98%
same,Abnormal or dead termite rate (%),[1]; [8],95%
same,Abnormal or dead termite rate (%),[1]; [9],96%
same,Abnormal or dead termite rate (%),[2]; [10],0%
same,Abnormal or dead termite rate (%),[2]; [11],0%
same,Abnormal or dead termite rate (%),[2]; [12],3.3%
same,Abnormal or dead termite rate (%),[2]; [13],3.3%
same,Abnormal or dead termite rate (%),[2]; [14],4.4%
CN/C(=N/CC1CCOC1)N[N+](=O)[O-] (stereo not shown) [Dinotefuran],Abnormal or dead termite rate (%),[1]; [5],93%
same,Abnormal or dead termite rate (%),[1]; [6],94%
same,Abnormal or dead termite rate (%),[1]; [7],96%
same,Abnormal or dead termite rate (%),[1]; [8],98%
same,Abnormal or dead termite rate (%),[1]; [9],99%
same,Abnormal or dead termite rate (%),[2]; [10],24%
same,Abnormal or dead termite rate (%),[2]; [11],18%
same,Abnormal or dead termite rate (%),[2]; [12],16%
same,Abnormal or dead termite rate (%),[2]; [13],18%
same,Abnormal or dead termite rate (%),[2]; [14],22%
CN(C(=O)c1ccccc1)c1cccc(C(=O)Nc2c(Br)cc(C(F)(C(F)(F)F)C(F)(F)F)cc2C(F)(F)F)c1F [Broflanilide],Abnormal or dead termite rate (%),[1]; [5],100%
same,Abnormal or dead termite rate (%),[1]; [6],73%
same,Abnormal or dead termite rate (%),[1]; [7],48%
same,Abnormal or dead termite rate (%),[1]; [8],53%
same,Abnormal or dead termite rate (%),[1]; [9],56%
same,Abnormal or dead termite rate (%),[2]; [10],2.2%
same,Abnormal or dead termite rate (%),[2]; [11],0%
same,Abnormal or dead termite rate (%),[2]; [12],3.3%
same,Abnormal or dead termite rate (%),[2]; [13],5.6%
same,Abnormal or dead termite rate (%),[2]; [14],6.7%
